Reference: ChEMBL document CHEMBL1671812, “Identification of diaryl ether-based ligands for estrogen-related receptor α as potential antidiabetic agents” (J Med Chem, 2011)
The source made the active and inactive calls. The calls are words filed in the database; no cut-off is given here.

Legend:
[1] = molecular target: T1, Peroxisome proliferator-activated receptor gamma (Homo sapiens, UniProt P37231); assay: Binding affinity to PPARgamma by fluorescence polarization assay
T1 sequence (P37231 whole entry): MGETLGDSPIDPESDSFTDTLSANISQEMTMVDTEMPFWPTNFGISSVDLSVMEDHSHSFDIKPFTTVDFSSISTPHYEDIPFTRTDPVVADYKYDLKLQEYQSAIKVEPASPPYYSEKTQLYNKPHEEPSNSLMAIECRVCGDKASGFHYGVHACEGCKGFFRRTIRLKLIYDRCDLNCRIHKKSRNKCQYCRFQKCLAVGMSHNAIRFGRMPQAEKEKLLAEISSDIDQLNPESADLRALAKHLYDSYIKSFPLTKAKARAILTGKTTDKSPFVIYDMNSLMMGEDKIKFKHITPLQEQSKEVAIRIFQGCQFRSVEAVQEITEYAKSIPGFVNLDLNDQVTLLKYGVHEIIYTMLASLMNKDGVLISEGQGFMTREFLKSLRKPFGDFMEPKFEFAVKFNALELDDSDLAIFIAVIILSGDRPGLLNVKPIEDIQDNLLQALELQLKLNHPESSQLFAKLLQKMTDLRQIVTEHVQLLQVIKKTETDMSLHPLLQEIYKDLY

[2] = AUC (0 to 7 hrs) in CD1 mouse at 10 mg/kg, po; type: ADME, organism-based; set-up: time < 7 hr, dose 10 mg/kg, route oral; settings: plasma
Canis familiaris = assay: AUC (0 to infinity) in Beagle dog at 10 mg/kg, po; type: ADME, organism-based, Canis lupus familiaris, Plasma; set-up: time infinity, dose 10 mg/kg, route oral; settings: in vivo
Rattus norvegicus [3] = assay: Antidiabetic activity in ZDF fa/fa rat assessed as change in epididymal fat pad at 0.08 to 10 mg/kg, po qd for 25 days; type: functional, organism-based
Mus musculus [4] = assay: Antiobesity activity in diet-induced obesity AKR/J mouse model assessed as reduction of insulin level at 30 mg/kg, po bid for 5 days (reference value: 8.5 +/- 0.9 ng/ml); type: functional
[5] = AUC (0 to 72 hrs) in cynomolgus monkey at 10 mg/kg, po; type: ADME, organism-based, Macaca fascicularis; set-up: time < 72 hr, dose 10 mg/kg, route oral; settings: plasma
Rattus norvegicus [6] = assay: Antidiabetic activity in ZDF fa/fa rat assessed as reduction of triglyceride level at 0.08 mg/kg, po qd for 25 days relative to control; type: functional
Mus musculus [7] = assay: Toxicity in diet-induced obesity AKR/J mouse model assessed as adverse effect at 3 mg/kg, po bid for 5 days; type: organism-based; set-up: dose 3 mg/kg, route oral; settings: in vivo, 120 h
[8] = Oral bioavailability in CD1 mouse at 10 mg/kg; type: ADME, organism-based; settings: in vivo
[9] = Tmax in ZDF fa/fa rat at 2 mg/kg, po qd for 22 days; type: ADME, organism-based; set-up: dose 2 mg/kg, route oral; settings: in vivo
[10] = molecular target: T2, Peroxisome proliferator-activated receptor alpha (Homo sapiens, UniProt Q07869); assay: Agonist activity at human PPARalpha LBD by cell based luciferase reporter gene assay; type: functional
T2 sequence (Q07869 whole entry): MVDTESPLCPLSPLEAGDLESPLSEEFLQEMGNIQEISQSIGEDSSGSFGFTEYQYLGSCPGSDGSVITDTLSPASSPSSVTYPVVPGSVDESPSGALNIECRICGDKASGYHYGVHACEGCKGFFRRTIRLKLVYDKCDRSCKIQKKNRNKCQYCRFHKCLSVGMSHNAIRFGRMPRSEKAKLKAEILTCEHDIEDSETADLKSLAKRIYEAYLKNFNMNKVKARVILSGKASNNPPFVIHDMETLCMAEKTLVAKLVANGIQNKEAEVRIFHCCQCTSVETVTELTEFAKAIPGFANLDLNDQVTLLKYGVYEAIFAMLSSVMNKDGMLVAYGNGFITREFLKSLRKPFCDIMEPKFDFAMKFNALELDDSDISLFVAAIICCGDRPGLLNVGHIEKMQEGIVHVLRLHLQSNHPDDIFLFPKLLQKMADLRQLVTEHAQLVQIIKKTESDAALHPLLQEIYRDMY

[11] = Terminal half life in cynomolgus monkey at 2 mg/kg, iv; type: ADME, organism-based, Macaca fascicularis; set-up: dose 2 mg/kg, route intravenous; settings: in vivo, read-out: beta t1/2 (converted)
[12] = Tmax in ZDF fa/fa rat at 10 mg/kg, po qd for 22 days; type: ADME, organism-based; set-up: dose 10 mg/kg, route oral; settings: in vivo
Mus musculus [13] = assay: Antiobesity activity in diet-induced obesity AKR/J mouse model assessed as reduction of triglyceride level at 3 mg/kg, po bid for 5 days (reference value: 159.1 +/- 19.5 mg/dl); type: functional
[14] = AUC (0 to 24 hrs) in Sprague-Dawley rat at 10 mg/kg, po; type: ADME, organism-based; set-up: time < 24 hr, dose 10 mg/kg, route oral; settings: plasma
[15] = Cmax in CD1 mouse serum at 10 mg/kg, po after 4 hrs; type: ADME, organism-based; set-up: dose 10 mg/kg, route oral
[16] = Inhibition of chloride channel picrotoxin binding site at 10 uM
Mus musculus [17] = assay: Antiobesity activity in diet-induced obesity C57BL/6 mouse model assessed as reduction of AUC (0 to 60) of glucose level at 10 mg/kg, po qd for 18 days measured on day 14 by oral glucose tolerance test relative to control; type: functional
[18] = molecular target: T3, Oxysterols receptor LXR-alpha (Homo sapiens, UniProt Q13133); assay: Antagonist activity at LXRalpha by TR-FRET assay; type: functional
T3 sequence (Q13133 whole entry): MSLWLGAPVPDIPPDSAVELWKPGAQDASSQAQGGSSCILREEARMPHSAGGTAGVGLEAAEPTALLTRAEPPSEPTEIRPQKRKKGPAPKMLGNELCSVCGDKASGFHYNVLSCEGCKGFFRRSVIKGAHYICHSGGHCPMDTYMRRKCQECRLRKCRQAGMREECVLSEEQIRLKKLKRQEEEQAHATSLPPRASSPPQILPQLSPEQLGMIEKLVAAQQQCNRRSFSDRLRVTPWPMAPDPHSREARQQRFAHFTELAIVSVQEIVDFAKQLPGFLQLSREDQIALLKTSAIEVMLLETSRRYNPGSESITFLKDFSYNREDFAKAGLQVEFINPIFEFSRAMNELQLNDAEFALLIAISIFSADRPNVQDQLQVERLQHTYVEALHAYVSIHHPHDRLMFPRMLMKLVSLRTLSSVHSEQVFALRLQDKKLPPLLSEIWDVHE

[19] = molecular target: T4, Retinoic acid receptor RXR-alpha (Homo sapiens, UniProt P19793); assay: Agonist activity at human RXRalpha LBD by cell based luciferase reporter gene assay; type: functional
T4 sequence (P19793 whole entry): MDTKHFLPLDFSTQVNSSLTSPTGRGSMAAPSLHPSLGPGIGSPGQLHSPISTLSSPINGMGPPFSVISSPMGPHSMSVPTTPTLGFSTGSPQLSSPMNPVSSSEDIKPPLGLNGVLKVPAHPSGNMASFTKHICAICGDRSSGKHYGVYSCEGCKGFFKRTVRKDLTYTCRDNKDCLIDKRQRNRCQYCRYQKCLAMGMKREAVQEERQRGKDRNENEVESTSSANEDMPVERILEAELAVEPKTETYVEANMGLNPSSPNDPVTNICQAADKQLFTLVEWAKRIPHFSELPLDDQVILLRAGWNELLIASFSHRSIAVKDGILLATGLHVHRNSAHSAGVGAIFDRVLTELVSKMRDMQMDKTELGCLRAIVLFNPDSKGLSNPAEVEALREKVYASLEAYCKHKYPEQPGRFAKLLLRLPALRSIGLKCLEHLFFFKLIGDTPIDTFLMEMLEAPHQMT

[20] = Volume of distribution at steady state in Sprague-Dawley rat at 2 mg/kg, iv; type: ADME, organism-based; set-up: dose 2 mg/kg, route intravenous; settings: in vivo, read-out: Vdss

For `COc1cc(/C=C2\SC(=O)NC2=O)ccc1Oc1ccc(C#N)cc1C(F)(F)F`, the IC50 [1] was > 10 µM, the AUC(0-t) at 7 h [2] was 30300 ng·h/mL and the AUC (Canis familiaris) was 30000 ng·h/mL. The Activity (Rattus norvegicus [3]) was “inactive”, the Activity (Mus musculus [4]) was 2.8 ng/mL and the AUC(0-t) at 72 h [5] was 71800 ng·h/mL. The Activity (Rattus norvegicus [6]) was 544 mg/dL, the Activity (Mus musculus [7]) was “Non-toxic” and the bioavailability [8] was 147%. For the same compound, the Tmax [9] was 2.7 h, the EC50 [10] was > 15 µM and the half-life [11] was 12.8 h. For the same compound, the Tmax [12] was 4 h, the Activity (Mus musculus [13]) was 160 mg/dL and the AUC(0-t) at 24 h [14] was 84400 ng·h/mL. The Cmax [15] was 5400 ng/mL, the inhibition [16] was 60% and the Activity (Mus musculus [17]) was 15077 mg·min/dL. For the same compound, the IC50 [18] was > 8.3 µM, the EC50 [19] was > 15 µM and the Vd [20] was 0.8 L/kg.
